Our source for the IC50 values is patent US12448394B2, “Heterocyclic pyrazole derivatives as type III receptor tyrosine kinase inhibitors” (DEVELOPMENT CENTER FOR BIOTECHNOLOGY, priority 2019, dated 2025).

pIC50: −log10 of the molar value.

The target of one test is T1, PDGFRα kinase (Homo sapiens, UniProt P16234).
T1 construct: purchased SignalChem
In words: PDGFRα kinase assay (AlphaScreen). It counts as biochemical. Particulars: read-out: Ranking of IC50 values, PDGFRα. The gist of the method: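 IC50 values came from duplicate serial dilutions, with product read by AlphaScreen. The reaction ran 30 min at 30 °C, then EDTA stop: 1.5 ng recombinant enzyme, biotin-poly(Glu4:Tyr1) substrate, 10 μM ATP, 10 mM MOPS pH 7.0, 10 mM MgCl2.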
On the technique in general: Bead proximity is the source of the signal in Alpha formats.

For test [1], the system named is A375 melanoma cell with BRAF V600E mutation. Kind of test: A375 cell proliferation assay (counter screen). It counts as cell-based, human. Particulars: Homo sapiens, A-375, A375 cells, 72 hours treatment, CellTiter96, read-out: anti-proliferation activity A375 BRAF V600E, IC50 ranking. The gist of the method: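 A375 cells (BRAF V600E) seeded at 2000 cells/well in DMEM with 10% FBS, settled overnight at 37° C, 5% CO2, then exposed to increasing compound concentrations for 72 hours. Viability read by MTS-type CellTiter96 AQueous reagent, absorbance at 490 nm after 2–4 hours.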
Background: The purpose of a counterscreen is to sort out artefacts and off-target activity.

The target of another test is T2, FLT3-D835Y mutant kinase (Homo sapiens, UniProt P36888, D835Y).
T2 construct: purchased SignalChem
T2 sequence (P36888 27-993 D835Y): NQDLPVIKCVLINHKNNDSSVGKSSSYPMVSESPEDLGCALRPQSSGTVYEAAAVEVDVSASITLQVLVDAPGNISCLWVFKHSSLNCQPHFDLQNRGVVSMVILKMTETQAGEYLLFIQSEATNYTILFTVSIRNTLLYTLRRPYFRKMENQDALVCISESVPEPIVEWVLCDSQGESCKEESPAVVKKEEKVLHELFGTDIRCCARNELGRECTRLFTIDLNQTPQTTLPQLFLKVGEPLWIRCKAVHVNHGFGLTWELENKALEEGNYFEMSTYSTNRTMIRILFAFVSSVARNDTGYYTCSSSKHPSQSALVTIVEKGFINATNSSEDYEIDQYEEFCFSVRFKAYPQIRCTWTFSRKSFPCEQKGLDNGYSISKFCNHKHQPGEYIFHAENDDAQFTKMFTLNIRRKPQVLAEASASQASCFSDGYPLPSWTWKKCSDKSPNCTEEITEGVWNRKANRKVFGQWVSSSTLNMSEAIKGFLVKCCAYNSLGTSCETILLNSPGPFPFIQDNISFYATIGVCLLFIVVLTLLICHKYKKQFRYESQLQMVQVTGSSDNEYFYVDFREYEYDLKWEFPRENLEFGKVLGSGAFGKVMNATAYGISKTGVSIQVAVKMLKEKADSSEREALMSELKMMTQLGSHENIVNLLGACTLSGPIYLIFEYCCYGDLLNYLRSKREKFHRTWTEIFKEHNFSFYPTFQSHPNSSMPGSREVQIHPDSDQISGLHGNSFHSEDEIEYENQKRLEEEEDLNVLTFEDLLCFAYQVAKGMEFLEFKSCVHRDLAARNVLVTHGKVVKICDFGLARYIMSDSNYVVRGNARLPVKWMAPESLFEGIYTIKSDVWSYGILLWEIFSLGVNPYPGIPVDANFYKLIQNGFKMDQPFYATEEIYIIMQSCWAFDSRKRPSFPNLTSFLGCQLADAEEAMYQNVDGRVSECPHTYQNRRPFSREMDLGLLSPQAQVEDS
Kind of test: FLT3-D835Y mutant kinase assay (AlphaScreen). It counts as biochemical. Particulars: read-out: Ranking of IC50 values, FLT3-D835Y. In outline: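 AlphaScreen readout of biotin-poly(Glu4:Tyr1) phosphorylation by 1 ng recombinant FLT3-D835Y. Conditions were 10 μM ATP, 10 mM MgCl2, MOPS pH 7.0, 30 min at 30 °C, EDTA stop. Compounds were serially diluted in duplicate to derive IC50.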

Test [2] concerns HCC827 NSCLC cell with EGFR exon 19 deletion mutation. In words: HCC827 cell proliferation assay (counter screen). It counts as cell-based, human. The conditions noted are these: Homo sapiens, HCC827 cells, 72 hours treatment, CellTiter96, read-out: anti-proliferation activity HCC827 EGFR Exon19 del, IC50 ranking. The gist of the method:
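HCC827 cells (EGFR exon 19 deletion) were seeded at 8000 cells/well in RPMI1640 with 10% FBS, then exposed to increasing compound concentrations for 72 h at 37 °C. Viability was read by CellTiter96 AQueous One (MTS), absorbance 490 nm after 2–4 h.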

T1 sequence (P16234 24-1089): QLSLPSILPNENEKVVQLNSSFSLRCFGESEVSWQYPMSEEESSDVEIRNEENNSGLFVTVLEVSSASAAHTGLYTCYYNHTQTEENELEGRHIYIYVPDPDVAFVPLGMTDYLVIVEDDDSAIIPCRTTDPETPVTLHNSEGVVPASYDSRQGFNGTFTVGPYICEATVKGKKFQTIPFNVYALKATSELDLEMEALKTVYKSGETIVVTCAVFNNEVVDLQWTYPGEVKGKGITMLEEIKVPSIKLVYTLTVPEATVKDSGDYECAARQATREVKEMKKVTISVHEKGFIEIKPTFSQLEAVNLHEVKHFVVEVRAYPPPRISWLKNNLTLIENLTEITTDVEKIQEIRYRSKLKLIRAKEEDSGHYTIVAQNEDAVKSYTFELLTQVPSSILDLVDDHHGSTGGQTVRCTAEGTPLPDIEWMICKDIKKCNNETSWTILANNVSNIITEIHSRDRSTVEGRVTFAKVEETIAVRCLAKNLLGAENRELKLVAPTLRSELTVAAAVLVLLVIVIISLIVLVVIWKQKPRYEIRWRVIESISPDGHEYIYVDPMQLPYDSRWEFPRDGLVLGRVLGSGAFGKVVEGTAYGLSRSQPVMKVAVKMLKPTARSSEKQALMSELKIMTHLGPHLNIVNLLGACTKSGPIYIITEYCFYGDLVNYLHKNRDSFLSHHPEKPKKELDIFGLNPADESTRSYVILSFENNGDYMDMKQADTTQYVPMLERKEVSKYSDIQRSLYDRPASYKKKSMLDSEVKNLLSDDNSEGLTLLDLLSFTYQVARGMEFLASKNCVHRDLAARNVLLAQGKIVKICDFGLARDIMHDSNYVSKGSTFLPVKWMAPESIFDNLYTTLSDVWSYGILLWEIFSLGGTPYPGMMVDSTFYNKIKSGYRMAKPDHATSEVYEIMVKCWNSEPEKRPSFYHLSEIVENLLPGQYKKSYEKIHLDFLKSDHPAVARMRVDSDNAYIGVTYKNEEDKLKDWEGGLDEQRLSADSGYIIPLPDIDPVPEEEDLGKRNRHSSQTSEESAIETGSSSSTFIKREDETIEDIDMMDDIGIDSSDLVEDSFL

For the compound `Cn1ncc2ccc(-c3n[nH]c4c3Cc3sc(-c5ccc(CCN6CCOCC6=O)cc5)cc3-4)cc21` [Compound 66, 4-(4-(3-(1-methyl-1H-indazol-6-yl)-1,4-dihydro-thieno[2′,3′:4,5]cyclopenta [1,2-c]pyrazol-6-yl)phenethyl)morpholin-3-one], the pIC50 at PDGFRα kinase is less than 6.00; in test [1], less than 5.00; on FLT3-D835Y mutant kinase, greater than 9.00; in test [2] it was less than 5.00.

As for `Cn1ncc2ccc(-c3n[nH]c4c3Cc3sc(-c5csc(CN6CCOCC6)c5)cc3-4)cc21` [Compound 52, 4-((4-(3-(1-methyl-1H-indazol-6-yl)-1,4-dihydro-thieno[2′,3′:4,5]cyclopenta [1,2-c]pyrazol-6-yl)thiophen-2-yl)methyl) morpholine], the pIC50 at PDGFRα kinase was 7.52 to 8.00; in test [1] it was less than 5.00; at FLT3-D835Y mutant kinase it was greater than 9.00; in test [2] it was less than 5.00.

Turning to `Cn1ncc2ccc(-c3n[nH]c4c3Cc3sc(-c5ccc(CN6CC(F)(F)C6)cc5)cc3-4)cc21` [Compound 104, 6-(4-((3,3-difluoroazeti-din-1-yl)methyl)phenyl)-3-(1-methyl-1H-indazol-6-yl)-1,4-dihydrothieno [2′,3′:4,5]cyclopenta [1,2-c]pyrazole], the pIC50 at PDGFRα kinase is 7.00 to 7.52; in test [1], 5.00 to 6.00; at FLT3-D835Y mutant kinase, 8.00 to 9.00; in test [2] it was less than 5.00.

In the case of `Cn1ncc2ccc(-c3n[nH]c4c3Cc3sc(-c5cnc(C(=O)N6CCOCC6)nc5)cc3-4)cc21` [Compound 41, (5-(3-(1-methyl-1H-indazol-6-yl)-1,4-dihydrothieno[2′,3′:4,5]cyclopenta[1,2-c]pyrazol-6-yl)pyrimidin-2-yl) (morpholino)methanone], the pIC50 on PDGFRα kinase is 7.52 to 8.00; in test [1] it was less than 5.00; on FLT3-D835Y mutant kinase, 8.00 to 9.00; in test [2], less than 5.00.

On to `Cn1ncc2ccc(-c3n[nH]c4c3Cc3sc(-c5ccc(CN6CCOCC6)c(F)c5)cc3-4)cc21` [Compound 25, 4-(2-fluoro-4-(3-(1-methyl-1H-indazol-6-yl)-1,4-dihydrothieno[2′,3′:4,5]cyclopenta[1,2-c]pyrazol-6-yl)benzyl)morpholine], for which the pIC50 was 8.00 to 9.00 at PDGFRα kinase, less than 5.00 in test [1], 8.00 to 9.00 on FLT3-D835Y mutant kinase and less than 5.00 in test [2].

Consider `Cn1ncc2ccc(-c3n[nH]c4c3Cc3sc(-c5ccc(C=C6CCOCC6)cc5)cc3-4)cc21` [Compound 76, 3-(1-methyl-1H-indazol-6-yl)-6-(4-((tetrahydro-4H-pyran-4-ylidene)methyl)phenyl)-1,4-dihydrothieno[2′,3′:4,5] cyclopenta[1,2-c]pyrazole], for which the pIC50 at PDGFRα kinase was 6.52 to 7.00; in test [1], less than 5.00; on FLT3-D835Y mutant kinase, 8.00 to 9.00; in test [2], less than 5.00.

`Cn1ncc2ccc(-c3n[nH]c4c3Cc3sc(-c5ccc(CN6CCC(N7CCOCC7)CC6)cc5)cc3-4)cc21` [Compound 80, 4-(1-(4-(3-(1-methyl-1H-indazol-6-yl)-1,4-dihydro-thieno[2′,3′:4,5]cyclopenta [1,2-c]pyrazol-6-yl)benzyl)piperidin-4-yl) morpholine]: the pIC50 at PDGFRα kinase was 8.00 to 9.00; in test [1], less than 5.00; at FLT3-D835Y mutant kinase it was greater than 9.00; in test [2], less than 5.00.

For the compound `Cn1ncc2ccc(-c3n[nH]c4c3Cc3sc(-c5cccc(C(=O)N6CCOCC6)c5)cc3-4)cc21` [Compound 37, (3-(3-(1-methyl-1H-indazol-6-yl)-1,4-dihydro-thieno[2′,3′:4,5]cyclopenta [1,2-c]pyrazol-6-yl)phenyl)(morpholino) methanone], the pIC50 on PDGFRα kinase was 8.00 to 9.00; in test [1], less than 5.00; on FLT3-D835Y mutant kinase, 8.00 to 9.00; in test [2], less than 5.00.

Take `Cn1ncc2ccc(-c3n[nH]c4c3Cc3sc(-c5ccc(CN6CCCCC6)cc5)cc3-4)cc21` [Compound 100, 3-(1-methyl-1H-indazol-6-yl)-6-(4-(piperidin-1-ylmethyl)phenyl)-1,4-dihydrothieno[2′,3′:4,5] cyclopenta[1,2-c]pyrazole]: the pIC50 at PDGFRα kinase is 8.00 to 9.00; in test [1], less than 5.00; at FLT3-D835Y mutant kinase it was greater than 9.00; in test [2] it was less than 5.00.

With `CN1CCN(C(=O)c2ccc(-c3cc4c(s3)Cc3c(-c5ccc6cnn(C)c6c5)n[nH]c3-4)cc2)CC1` [Compound 15, (4-(3-(1-methyl-1H-indazol-6-yl)-1,4-dihydrothieno[2′,3′:4,5]cyclopenta[1,2-c]pyrazol-6-yl)phenyl)(4-methyl-piperazin-1-yl)methanone], the pIC50 on PDGFRα kinase was 8.00 to 9.00; in test [1], less than 5.00; on FLT3-D835Y mutant kinase, greater than 9.00; in test [2], less than 5.00.

As for `C[C@@H]1COCCN1Cc1ccc(-c2cc3c(s2)Cc2c(-c4ccc5cnn(C)c5c4)n[nH]c2-3)cc1` [Compound 74, (R)-3-methyl-4-(4-(3-(1-methyl-1H-indazol-6-yl)-1,4-dihydrothieno [2′,3′:4,5]cyclopenta [1,2-c]pyrazol-6-yl)benzyl)morpholine], the pIC50 at PDGFRα kinase was 8.00 to 9.00; in test [1] it was less than 5.00; on FLT3-D835Y mutant kinase it was greater than 9.00; in test [2] it was less than 5.00.

As to `CN(c1ccc(-c2cc3c(s2)Cc2c(-c4ccc5cnn(C)c5c4)n[nH]c2-3)cc1)C1CCOCC1` [Compound 73, N-methyl-N-(4-(3-(1-methyl-1H-indazol-6-yl)-1,4-dihydrothieno [2′,3′:4,5]cyclopenta [1,2-c]pyrazol-6-yl)phenyl)tetrahydro-2H-pyran-4-amine], the pIC50 on PDGFRα kinase is 7.00 to 7.52; in test [1] it was less than 5.00; on FLT3-D835Y mutant kinase it was 8.00 to 9.00; in test [2] it was less than 5.00.

`COc1cc(-c2cc3c(s2)Cc2c(-c4ccc5cnn(C)c5c4)n[nH]c2-3)ccc1C(=O)N1CCOCC1` [Compound 43, (2-methoxy-4-(3-(1-methyl-1H-indazol-6-yl)-1,4-dihydrothieno [2′,3′:4,5]cyclopenta [1,2-c]pyrazol-6-yl)phenyl)(morpholino) methanone]: the pIC50 was 8.00 to 9.00 on PDGFRα kinase, less than 5.00 in test [1], 8.00 to 9.00 at FLT3-D835Y mutant kinase and less than 5.00 in test [2].

Take `Cn1ncc2ccc(-c3n[nH]c4c3Cc3sc(-c5ccc(CN6CCCCC6=O)cc5)cc3-4)cc21` [Compound 61, 1-(4-(3-(l-methyl-1H-indazol-6-yl)-1,4-dihydro-thieno[2′,3′:4,5]cyclopenta [1,2-c]pyrazol-6-yl)benzyl)piperidin-2-one]: the pIC50 at PDGFRα kinase was 8.00 to 9.00; in test [1], less than 5.00; at FLT3-D835Y mutant kinase, greater than 9.00; in test [2] it was less than 5.00.

For `Cn1ncc2ccc(-c3n[nH]c4c3Cc3sc(-c5ccc(CN6CCCC6=O)cc5)cc3-4)cc21` [Compound 64, 1-(4-(3-(1-methyl-1H-indazol-6-yl)-1,4-dihydro-thieno[2′,3′:4,5]cyclopenta [1,2-c]pyrazol-6-yl)benzyl)pyrrolidin-2-one], the pIC50 at PDGFRα kinase was 7.52 to 8.00; in test [1], less than 5.00; at FLT3-D835Y mutant kinase it was 8.00 to 9.00; in test [2], less than 5.00.

As for `CC(C)Cn1ncc2ccc(-c3n[nH]c4c3Cc3sc(-c5ccc(CN6CCOCC6)cc5)cc3-4)cc21` [Compound 35, 4-(4-(3-(1-isobutyl-1H-indazol-6-yl)-1,4-dihydro-thieno[2′,3′:4,5]cyclopenta [1,2-c]pyrazol-6-yl)benzyl)morpholine], the pIC50 was 7.00 to 7.52 on PDGFRα kinase, less than 5.00 in test [1], 8.00 to 9.00 on FLT3-D835Y mutant kinase and less than 5.00 in test [2].
